Entries after “also recorded” stand apart in the source; their conditions may differ.
Tests used:
[1] = system: isolated mitochondria (U-937 cells); assay: In vitro cytochrome c release from isolated mitochondria; assay type: biochemical, Human; conditions: respiring and non-respiring conditions, 30 min, Western blot
Procedure: In Vitro Cytochrome c Release from Isolated Mitochondria.
U-937 cells (120×10^6) were washed twice in PBS and resuspended in 800 μL ice-cold lysis buffer (50 mM HEPES, 5 mM DTT, 5 mM PMSF, 25 mM MgCl2, protease cocktail inhibitor, pH 7.5) and the cells were passed through a 26 gauge needle 26 times using a 1 mL syringe until >95% cells were lysed as determined by trypan blue. Isolation buffer (0.25 M sucrose in lysis buffer pH 7.5) was added to the lysed cells (2.4 mL) and mixed by inversion. Debris was removed by centrifugation (500×g. 10 min at 4° C.) and the mitochondria in the supernatant were pelleted by centrifugation (10000×g, 5 min at 4° C.). The mitochondrial pellet was resuspended in washing buffer (2 mL of 50 mM HEPES, 250 mM KCl, 25 mM EDTA, pH 7.5) and incubated on ice for 2 min and centrifuged (12500×g, 5 min). The mitochondrial pellet was resuspended in either non-respiration (300 μL of 50 mM HEPES, 5 mM DTT, 5 mM PMSF, 25 mM MgCl2, protease inhibitor, 250 mM KCl, 25 mM EDTA, pH 7.5) or respiration buffer (300 μL of 50 mM HEPES, […], 5 mM ATP, 0.4 mM ADP, 25 mM sodium succinate, 10 mM potassium phosphate dibasic, pH 7.5). […]

U-937 cells [2] = assay: Immunoblotting of caspase activation and PARP-1 cleavage; assay type: cell-based, Human; conditions: 10 μM
Procedure: U-937 cells (3×10^6 cells in 2 mL RPMI) or SKW 6.4 cells (5×10^6 cells in 2 mL RPMI) were treated with compound (1% final DMSO v/v) for the appropriate period of time. After centrifugation and washing with PBS, cells were lysed with RIPA lysis buffer containing protease cocktail inhibitor III (Calbiochem) and cell debris removed by centrifugation (16000×g 5 min). The lysate concentrations were normalized after determination of protein concentration by the Bradford assay and whole cell lysate (40-60 μg) was resolved by 4-20% gradient SDS-PAGE gel electrophoresis at 120 V for 70 min after which proteins were transferred onto PVDF membranes (60 V for 2 hours) and blocked in 5% BSA or fat-free milk in TBST (as per primary antibody manufacturer's instructions) overnight at 4° C. The membranes were blotted for molecules of interest with primary antibody (1:1000 in 5% BSA or milk in TBST) overnight at 4° C. The bound primary antibodies were detected using appropriate secondary HRP conjugated antibodies (1:5000 in TBST) for 1 hour at room temperature and visualized by ECL autoradiography or with an Image Quant LAS 4010. The membranes were stripped in acidic methanol, blocked and re-probed as necessary.
Induction of Necroptosis and Observation of Phospho-MLKL by Immunoblot.
[…]. Cells were then treated with TNFα (10 ng/ml) in the presence of cycloheximide (20 μg/ml) for (1% final DMSO v/v) for the appropriate period of time. After centrifugation and washing with PBS, cells were lysed with RIPA lysis buffer containing protease cocktail inhibitor III (Calbiochem) and Phosphatase Inhibitor IV (BioVision). Samples were further processed for immunblot analysis as described above.

SKW 6.4 cells = assay: Cytochrome c release by immunoblot and flow cytometry; assay type: cell-based, Human; conditions: 10 μM
Procedure: (§1) Cytochrome c Release by Immunoblot.
(§2) U-937 cells (3×10^6 cells in 2 mL RPMI) or SKW 6.4 cells (5×10^6 cells in 2 mL RPMI) were treated with 10 μM Raptinal for 10, 20, 30, 45 or 60 minutes in a 12-well plate. Cells were centrifuged (1000×g. 2 min), washed with ice-cold PBS and resuspended in cold 200 μL digitonin permeabilization buffer (75 mM NaCl, 1 mM Sodium phosphate monobasic, 8 mM sodium phosphate dibasic, 250 mM sucrose, 190 μg/mL digitonin, protease cocktail inhibitor, pH 7.5) and placed on ice for 5 min. Cell permeability (>95%) was confirmed by trypan blue. The permeabilized cells were centrifuged (14000×g, 5 min) and 150 μL of supernatant (cytosolic fraction) was saved. The pellet (mitochondrial fraction) was washed in 200 μL digitonin permeabilization buffer and lysed in 25 μL RIPA lysis buffer. […]
(§3) Suspension cells (2.5×10^6 SKW 6.4 cells or 1.5×10^6 U-937 cells in 1 mL RPMI) were treated with 10 μM Raptinal in a 24 well plate for 10, 20, 30, 45 and 60 min. The cells were centrifuged (1000×g, 2 min), washed with cold PBS and resuspended in cold permeabilization buffer (PBS containing 50 μg/mL digitonin and 100 mM KCl) and placed on ice for 5 min after which >95% of cells were permeabilized as determined by trypan blue. […] The cells were pelleted and washed with PBS (3 mL) and resuspended in PBS (1 mL) and analyzed by flow cytometry. […]

U-937 cells [3] = assay: as above; assay type: cell-based, Human; conditions: 10 μM
Procedure: as §1, §2, §3

O=CC1(C2(C=O)c3ccccc3-c3ccccc32)c2ccccc2-c2ccccc21 [Raptinal, [9,9′]bifluorenyl-9,9′-dicarbaldehyde]
cytochrome c release from isolated mitochondria [1]: does not induce cytochrome c release; also recorded: did not directly induce cytochrome c release | time of activation of initiator caspase-9 (U-937 cells [2]): 20 min | time to complete cleavage of procaspase-9, procaspase-8 and procaspase-3 (U-937 cells [2]): ≤ 45 min | cleavage of procaspase-1 (pyroptosis/pyronecrosis) (U-937 cells [2]; Western blot): neither | activation of procaspase-3 to caspase-3 (immunoblot) (U-937 cells [2]; one hour treatment): complete activation | cleavage of PARP-1 (116 to 89 kDa form) (U-937 cells [2]; one hour, versus the other toxins): Significantly more abundant cleavage | time of earliest / partial cytochrome c release (SKW 6.4 cells): 10 min | time of earliest / partial cytochrome c release (U-937 cells [3]): 10 min

Reference: patent US9682060B2, “Small molecules that induce intrinsic pathway apoptosis” (The Board of Trustees of the University of Illinois, priority 2015, dated 2017)
